Patent US20230414535A1, “PHARMACEUTICAL COMPOSITION COMPRISING UBIQUINONE-5 AND METHOD OF USE THEREOF” (The Trustees of Columbia University in the City of New York, priority 2021, published 2023)

Tests used:
[1] = test system: isolated forebrain mitochondria; assay: Oligomycin-induced state 4 respiration and ΔΨm in isolated forebrain mitochondria; format: biochemical; conditions: for effect on GABA- or Ub5-induced respiration/leak: added after GABA or Ub5, picrotoxin 1 mM, PLP 10 mM
Method: Turning to FIGS. 10a and b, oligomycin-induced state 4 was initiated in isolated forebrain mitochondria using succinate. Tracings of O2 consumption (FIG. 10a) with simultaneous ΔΨm measurement (FIG. 10b) are depicted. Numbers (FIG. 10a) are rates of respiration (nmol·mL-1·min-1·mg mitochondrial protein-1). GABA (10 mM) or Ub5 ([…]) were added. Aralar was inhibited with pyridoxal 5′-phosphate (PLP)(10 mM). Picrotoxin (GABAA receptor antagonist (1 mM)) and GABA or Ub5 alone served as controls. Black solid lines are slopes of ΔΨm prior to and after inhibitor. Decrease in respiration rate with concomitant stabilization or rise in ΔΨm indicates inhibition of leak. […] Thus, PLP blocked GABA import via Aralar. […] Aralar is best described as an aspartate-glutamate carrier within mitochondria. Aralar is the solute that exports aspartate from neuronal mitochondria in exchange for glutamate plus a proton. Thus, Aralar causes leak by translocating protons across the inner mitochondrial membrane during solute transport. Aralar causes leak that can degrade ΔΨm. Aralar is a neuronal transporter that sequesters GABA within the mitochondrial matrix. Many anesthetic agents bind to the GABAA receptor and potentiate GABAergic signaling.

[2] = test system: isolated perfused murine hearts; assay: Surface ECG of isolated perfused murine hearts; conditions: isolated perfused heart
Method: In FIGS. 2a and 2b, surface ECGs were recorded continuously for isolated perfused murine hearts that were prepared and stabilized. Hearts were exposed to either decylubiquinone or ubiquione-5. […] Thus, quinone analogs suppressed electrical signaling in the heart in a reversible manner.

isolated mitochondria = assay: Complex II-dependent state 4 (leak) respiration with simultaneous mitochondrial membrane potential measurement; format: biochemical; conditions: succinate in the presence of oligomycin, FIG. 1
Text: FIGS. 1a-c are representative tracings of complex II-dependent state 4 respiration (leak respiration) using succinate in the presence of oligomycin are depicted above and tracings of simultaneously measured mitochondrial membrane potential (ΔΨ) are shown below, for (a) propofol, (b) decylubiquinone, and (c) ubiquinone-5;
In FIG. 1, representative tracings of Complex II-dependent state 4 respiration (leak respiration) using succinate in the presence of oligomycin are depicted in the top three curves and tracings of simultaneously measured mitochondrial membrane potential (ΔΨ) are shown in the bottom three curves. The numbers in the tracings above show rates of oxygen consumption (nmol·mL-1·min-1·mg mitochondrial protein-1). Addition of propofol (FIG. 1 a) decylubiquinone (DB) (FIG. 1b) or ubiquinone-5 (FIG. 1c) are indicated. ΔΨ was determined as a function of triphenylphosphonium (TPP+) concentration in the bath. […] This mechanism is highly reminiscent of the effect of the anesthetic, propofol (FIG. 1a), in isolated mitochondria.

Picrotoxin
effect on GABA- or Ub5-induced respiration/leak [1]: minimal effect

Cc1ncc(COP(=O)(O)O)c(C=O)c1O [PLP, pyridoxal 5′-phosphate]
effect on ΔΨm after GABA or Ub5 ([1]; PLP 10 mM added after GABA or Ub5): stabilized ΔΨm | effect on ΔΨm with Ub5 ([1]; PLP 10 mM added after Ub5): acutely increased ΔΨm | effect on GABA- or Ub5-induced respiration/leak [1]: normalized respiration to pre-GABA or Ub5 levels

NCCCC(=O)O [GABA]
proton leak (respiration and ΔΨm) ([1]; succinate, oligomycin-induced state 4, GABA (10 mM) or Ub5 (100 mM), FIG. 10): induced a slow increase in proton leak

CCCCCCCCCCC1=C(C)C(=O)C(OC)=C(OC)C1=O [decylubiquinone]
ECG upon cessation of exposure and washout ([2]; after washout): sinus rhythm normalized | surface ECG effect during exposure ([2]; during exposure, FIG. 2): rapidly induced bradycardia that persisted throughout the duration of exposure | proton leak (state 4 respiration) (isolated mitochondria): increased proton leak | mitochondrial membrane potential (ΔΨ) (isolated mitochondria; determined via TPP+): decline in ΔΨ
